According to US9078868B2, “Therapeutic agent for accelerating recovery of animal under medical treatment” (UNIVERSITY OF MIYAZAKI, priority 2010, dated 2015):
No end group written: not given here. *: point of attachment. Octanoyl = CCCCCCCC(=O)*

System: animals under medical treatment with physical conditions worsened by various diseases
Assay: Example 2: single dose of ghrelin in animals under medical treatment for pathological conditions other than a surgery
Format: in vivo, canines and felines
Details: for Activity (vigor): animals improved/animals evaluated / Activity (vigor): response rate / Biochemical tests: animals improved/animals evaluated / Biochemical tests: response rate / Hematology tests: animals improved/animals evaluated / Hematology tests: response rate / Body temperature: animals improved/animals evaluated / Body temperature: response rate: single dose
Procedure: In these Examples, a canine-derived ghrelin (a peptide compound in which a side chain hydroxyl group of the serine residue at the 3rd position from the amino terminus is acylated with an n-octanoyl group in SEQ ID NO: 1) was used as ghrelin. The canine-derived ghrelin was chemically synthesized and then lyophilized, and a canine-derived ghrelin for administration containing 0.1, 0.3, 0.5, or 1 mg per vial of a canine-derived ghrelin was prepared.
To administer ghrelin to animals, the canine-derived ghrelin was dissolved to a concentration of 1 mg/2 mL in physiological saline and intravenously, subcutaneously, or intramuscularly injected after the dose was adjusted depending on the body weight.
Animals hospitalized in veterinary hospitals, particularly canines and felines, were used for treatment. These animals may or may not have undergone a surgery for treatment. The surgeries performed on the animals were pyometra surgery, surgical removal of a reproductive organ, surgical removal of mammary gland tumor, ovary cyst surgery, liver cell tumor surgery, disc hernia surgery, diaphragmatic hernia surgery, fracture surgery, gastrointestinal tract surgery, and urethroplasty.
Physical conditions in animals with various pathological conditions were examined by measuring parameters including activity (vigor), blood cell test values, biochemical test values, urinalysis, electrolyte tests, body weight, body temperature, the degree of anger or anxiety, respiratory rate, and the like to evaluate the effect of improving physical conditions in the animals. The effect was evaluated by comparing various evaluation parameters before and after administration.
The evaluation parameters used were activity (vigor), body temperature, hematology parameters (blood cell test values), serum biochemistry parameters (biochemical test values), the degree of anger or anxiety, and respiratory rate. […] The degree of anger or anxiety of an animal observed visually by an observer were also evaluated using the following criteria: 1. calm and accustomed to a health care professional, 2. able to be touched by but unaccustomed to a health care professional and restless, 3. wandering around or hiding in the kennel with anxiety, 4. able to be barely touched, and 5. too violent to be touched by a health care professional and tends to bite.
Ten animals had two or more diseases concurrently. The diseases including concurrent diseases were as follows: lower urological syndrome, urinary retention, infectious respiratory syndrome, chronic renal failure, osteoarthritis, chronic hepatitis, cystolithiasis, malnutrition, debility, jaundice, circulatory insufficiency, multiple organ failure, pulmonary edema, anemia, tabefaction, diarrhea, vomiting, wheezing, pyrexia, FIV, FELV infection, CPV infection, FVR, a liver disease, filariasis, hemobartonellosis, babesiosis, habu bite, anaphylaxis, a falling accident, rib fracture, and burn.
Of the animals with these diseases, the evaluation parameters recorded in medical records were as follows: activity (vigor) in 16 animals, biochemistry parameters (biochemical test values) in 11 animals, hematology parameters (blood cell test values) in three animals, and body temperature in one animal.

[1] = multiple organ failure, 1 animal
[2] = total, 18 animals with various diseases

GSS (n-octanoyl) FLSPEHQKLQQRKESKKPPAKLQPR (GSS(Octanoyl)FLSPEHQKLQQRKESKKPPAKLQPR; listed as Canis familiaris) [ghrelin, chemically synthesized, lyophilized]
Activity (vigor): animals improved/animals evaluated (accident etc., 3 animals): 3/3 | Activity (vigor): response rate (accident etc., 3 animals): 100% | Biochemical tests: animals improved/animals evaluated (accident etc., 3 animals): 1/1 | Biochemical tests: response rate (accident etc., 3 animals): 100% | Activity (vigor): animals improved/animals evaluated (anaphylaxis, 1 animal): 1/1 | Activity (vigor): response rate (anaphylaxis, 1 animal): 100% | Biochemical tests: animals improved/animals evaluated (anaphylaxis, 1 animal): 1/1 | Biochemical tests: response rate (anaphylaxis, 1 animal): 100% | Serum potassium (K) value after administration (animals in the Examples with decreased serum potassium after persistent poor physical conditions): improved | T-bil after administration (before administration 18.8 mg/dL): 4.9 mg/dL | Activity (vigor): animals improved/animals evaluated (debility, 1 animal): 1/1 | Activity (vigor): response rate (debility, 1 animal): 100% | Biochemical tests: animals improved/animals evaluated (debility, 1 animal): 1/1 | Biochemical tests: response rate (debility, 1 animal): 100% | NH3 after administration (example, before administration 207 μg/dL): 302 µg/dL | Cre after administration (example, before administration 3.2 mg/dL): 1.3 mg/dL | BUN after administration (example, before administration 72.5 mg/dL): 15.4 mg/dL | Body temperature after administration (example, before administration 40.2° C.): 37.8 °C | White blood cell count after administration (example, before administration 278×10^2/μL): 16700 µL⁻¹ | ALP after administration (example, before administration 643 IU/L): 291 IU/L | GPT after administration (example, before administration 670 IU/L): 260 IU/L | CPK after administration (example, before administration 1166 IU/L): 64 IU/L | GOT after administration (example, before administration >1000 IU/L): 187 IU/L | Activity (vigor) score after administration (example, before administration a score of 1 (unable to move), scale 1-7): 3 | Activity (vigor): animals improved/animals evaluated (infection, 8 animals): 6/6 | Activity (vigor): response rate (infection, 8 animals): 100% | Biochemical tests: animals improved/animals evaluated (infection, 8 animals): 6/6 | Biochemical tests: response rate (infection, 8 animals): 100% | Hematology tests: animals improved/animals evaluated (infection, 8 animals): 1/1 | Hematology tests: response rate (infection, 8 animals): 100% | Activity (vigor): animals improved/animals evaluated (liver disease, 1 animal): 1/1 | Activity (vigor): response rate (liver disease, 1 animal): 100% | Body temperature: animals improved/animals evaluated (liver disease, 1 animal): 1/1 | Body temperature: response rate (liver disease, 1 animal): 100% | Activity (vigor): animals improved/animals evaluated [1]: 1/1 | Activity (vigor): response rate [1]: 100% | Activity (vigor): animals improved/animals evaluated (renal dysfunction, 3 animals): 3/3 | Activity (vigor): response rate (renal dysfunction, 3 animals): 100% | Biochemical tests: animals improved/animals evaluated (renal dysfunction, 3 animals): 1/1 | Biochemical tests: response rate (renal dysfunction, 3 animals): 100% | Hematology tests: animals improved/animals evaluated (renal dysfunction, 3 animals): 2/2 | Hematology tests: response rate (renal dysfunction, 3 animals): 100% | Activity (vigor): animals improved/animals evaluated [2]: 16/16 | Activity (vigor): response rate [2]: 100% | Biochemical tests: animals improved/animals evaluated [2]: 11/11 | Biochemical tests: response rate [2]: 100% | Body temperature: animals improved/animals evaluated [2]: 1/1 | Body temperature: response rate [2]: 100% | Hematology tests: animals improved/animals evaluated [2]: 3/3 | Hematology tests: response rate [2]: 100%
